Data published in patent US20240124412A1, “IKAROS ZINC FINGER FAMILY DEGRADERS AND USES THEREOF” (Gilead Sciences, Inc., priority 2021, published 2024).

What was measured:
[1] = target: T1, IKZF2 (Homo sapiens, UniProt Q96SW2+Q9UKS7); test: HiBiT protein tagging assay, in vitro IKZF2 degradation (HEK293); assay type: cell-based; conditions: HEK293, 18-24 hr incubation, normalized to DMSO control; for Dmax: HEK293, HiBiT assay, read-out: IKZF2 Dmax (maximum degradation at the highest concentration tested); for DC50: HiBiT assay, read-out: IKZF2 EC50
T1 construct: expressed in transfected cells
T1 sequence (Q9UKS7 1-500 isoform Q9UKS7-2): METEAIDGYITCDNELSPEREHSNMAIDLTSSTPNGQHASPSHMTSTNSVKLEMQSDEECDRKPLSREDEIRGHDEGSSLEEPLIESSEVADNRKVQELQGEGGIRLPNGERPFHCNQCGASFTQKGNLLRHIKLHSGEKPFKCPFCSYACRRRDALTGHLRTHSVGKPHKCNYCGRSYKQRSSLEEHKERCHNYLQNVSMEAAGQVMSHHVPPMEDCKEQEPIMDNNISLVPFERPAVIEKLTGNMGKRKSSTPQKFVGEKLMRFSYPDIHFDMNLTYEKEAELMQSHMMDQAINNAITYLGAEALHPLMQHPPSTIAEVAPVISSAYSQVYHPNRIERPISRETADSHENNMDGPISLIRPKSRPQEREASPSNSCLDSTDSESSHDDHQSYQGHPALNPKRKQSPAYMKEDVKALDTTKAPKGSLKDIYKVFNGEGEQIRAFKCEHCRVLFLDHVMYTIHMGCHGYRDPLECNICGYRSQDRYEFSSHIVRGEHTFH
T1 sequence (Q96SW2 whole entry): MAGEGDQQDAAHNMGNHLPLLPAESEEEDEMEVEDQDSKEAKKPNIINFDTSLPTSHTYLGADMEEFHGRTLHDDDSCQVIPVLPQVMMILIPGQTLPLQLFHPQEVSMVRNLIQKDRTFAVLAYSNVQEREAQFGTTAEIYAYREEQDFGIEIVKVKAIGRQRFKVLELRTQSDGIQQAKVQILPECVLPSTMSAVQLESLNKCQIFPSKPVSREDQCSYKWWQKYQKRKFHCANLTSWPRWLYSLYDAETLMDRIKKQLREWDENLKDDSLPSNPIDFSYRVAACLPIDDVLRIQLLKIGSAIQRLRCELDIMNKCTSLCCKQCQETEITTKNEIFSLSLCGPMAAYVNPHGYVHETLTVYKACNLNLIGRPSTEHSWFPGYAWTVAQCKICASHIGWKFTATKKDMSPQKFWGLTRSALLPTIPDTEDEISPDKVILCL
T1 sequence (Q16531 whole entry partner): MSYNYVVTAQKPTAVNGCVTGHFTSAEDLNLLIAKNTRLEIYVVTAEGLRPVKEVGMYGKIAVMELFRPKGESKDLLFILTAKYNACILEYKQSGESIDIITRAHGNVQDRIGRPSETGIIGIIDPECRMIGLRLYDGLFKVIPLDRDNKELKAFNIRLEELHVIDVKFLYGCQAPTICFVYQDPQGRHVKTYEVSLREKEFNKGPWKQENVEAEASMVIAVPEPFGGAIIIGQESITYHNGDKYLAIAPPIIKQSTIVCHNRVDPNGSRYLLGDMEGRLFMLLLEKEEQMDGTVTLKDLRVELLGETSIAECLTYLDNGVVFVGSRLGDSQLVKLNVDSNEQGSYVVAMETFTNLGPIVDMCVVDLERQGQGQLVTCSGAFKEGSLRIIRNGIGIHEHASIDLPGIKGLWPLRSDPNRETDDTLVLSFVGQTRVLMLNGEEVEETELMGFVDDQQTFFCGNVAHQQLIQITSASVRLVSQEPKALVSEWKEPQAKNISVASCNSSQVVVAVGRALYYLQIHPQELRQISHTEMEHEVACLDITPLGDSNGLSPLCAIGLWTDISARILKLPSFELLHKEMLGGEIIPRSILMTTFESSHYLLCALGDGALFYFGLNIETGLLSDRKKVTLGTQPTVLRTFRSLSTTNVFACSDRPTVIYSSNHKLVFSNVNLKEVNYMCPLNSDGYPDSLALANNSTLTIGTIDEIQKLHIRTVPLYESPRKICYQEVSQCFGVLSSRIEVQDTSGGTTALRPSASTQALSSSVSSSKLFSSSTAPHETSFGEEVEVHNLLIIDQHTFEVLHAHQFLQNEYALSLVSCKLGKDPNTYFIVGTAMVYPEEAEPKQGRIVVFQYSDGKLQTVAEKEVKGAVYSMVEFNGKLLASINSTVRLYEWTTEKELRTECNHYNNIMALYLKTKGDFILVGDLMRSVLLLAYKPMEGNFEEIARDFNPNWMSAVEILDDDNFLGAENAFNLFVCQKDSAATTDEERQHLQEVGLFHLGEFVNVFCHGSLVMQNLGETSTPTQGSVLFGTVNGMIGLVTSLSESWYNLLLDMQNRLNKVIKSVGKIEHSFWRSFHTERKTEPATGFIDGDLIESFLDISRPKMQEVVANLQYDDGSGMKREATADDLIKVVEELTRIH
Description: (§1) In vitro degradation of IKZF1 and IKZF2 was measured using HiBiT protein tagging and detection technology (Promega).
(§2) HiBiT technology (Promega) was used to develop the quantitative assays to measure the cellular IKZFs level by tagging an 11 amino acid HiBit peptides VSGWRLFKKIS (SEQ ID NO:1) to the protein of interest. Reporter plasmids were generated by fusing a linker sequence (GSSGGSSG; SEQ ID NO:2) followed by the HiBiT tag at the C terminus of IKZF1 and IKZF2. The fusion fragments were subsequently cloned into pcDNA5 pcDNA™5/FRT/TO plasmids (Thermo Fisher, cat #V652020) downstream of the Tetracycline operator. The resulting plasmids were co-transfected with pOG44 Flp-Recombinase Expression Vector (Thermo Fisher, cat #V600520) into Flp-In™ T-REx HEK293 line (Thermo Fisher, cat #R78077) and a stable cell pool was selected by adding 100 μg/ml of Hygromycin (Thermo Fisher, cat #10687010). The reporter cell enabled Tet-On inducible reporter expression from a single copy of the integrated gene.
(§3) On Day 1, Cells were grown to ˜80% confluency in TC medium (DMEM Glutamax (Gibco10569), 10% Tet free FBS (Takara 631106), and PenStrep Glutamin (Gibco 10378)) in tissue culture flasks. Doxycycline was then added to a final concentration of 1 μg/ml to induce reporter expression at 37° C. overnight.
(§4) On Day 2, 125 nL of serially-diluted solution of testing compounds were dispensed into 384-well white solid assay plates via ECHO acoustic liquid handler. Cells were lifted by 0.25% Trypsin (Gibco 25200) then pelleted by centrifugation (Beckman Avanti J-E) at 500×g for 5 min. Cell pellets were resuspended in TC medium at the concentration of 3e5/mL and 25 μL of cell suspension were added into each well of compound-spotted plates. The plates were returned to a 37° C. incubator overnight (18-24 hr).
(§5) On Day 3, assay plates were removed from the TC incubator and 25 μL of Nano-Glo lytic detection system (Promega, cat #N3030) was added to each well. Plates were incubated at r.t. for 3 min with shaking, and luminescence was read using an Envision reader (Perkin Elmer).
(§6) All raw data was normalized to DMSO control (final concentration: 0.5%) wells as POC and plotted out for EC50 and Dmax (Maximum degradation at the highest concentration tested in the assay).

[2] = target: T2, IKZF1 (Homo sapiens, UniProt Q13422+Q96SW2); test: HiBiT protein tagging assay, in vitro IKZF1 degradation (HEK293); assay type: cell-based; conditions: HEK293, 18-24 hr incubation, normalized to DMSO control; for Dmax: read-out: IKZF1 Dmax (maximum degradation at the highest concentration tested); for DC50: read-out: IKZF1 EC50
T2 construct: expressed in transfected cells
T2 sequence (Q13422 whole entry): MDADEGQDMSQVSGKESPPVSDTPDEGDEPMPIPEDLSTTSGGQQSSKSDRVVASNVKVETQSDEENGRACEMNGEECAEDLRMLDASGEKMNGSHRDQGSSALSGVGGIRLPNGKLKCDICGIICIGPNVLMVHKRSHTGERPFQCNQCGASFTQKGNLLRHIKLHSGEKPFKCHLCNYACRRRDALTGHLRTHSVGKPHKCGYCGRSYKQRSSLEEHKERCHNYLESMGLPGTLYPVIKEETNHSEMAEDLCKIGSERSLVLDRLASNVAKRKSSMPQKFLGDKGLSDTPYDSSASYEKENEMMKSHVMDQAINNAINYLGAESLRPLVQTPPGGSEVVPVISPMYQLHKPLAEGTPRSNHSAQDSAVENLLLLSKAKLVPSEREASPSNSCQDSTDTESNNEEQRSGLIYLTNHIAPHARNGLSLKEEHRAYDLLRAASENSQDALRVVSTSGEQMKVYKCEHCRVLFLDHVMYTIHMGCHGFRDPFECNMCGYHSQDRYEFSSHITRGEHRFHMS
T2 sequence (Q96SW2 whole entry): as the sequence (Q96SW2 whole entry) above
T2 sequence (Q16531 whole entry partner): as the sequence (Q16531 whole entry partner) above
Description: as §1, §2, §3, §4, §5, §6

Dmax [1] [%] | DC50 [1] [µM] | Dmax [2] [%] | DC50 [2] [µM] | SMILES
27 | 0.264 | 75 | 0.035 | O=C1CCC(N2Cc3cc(CNCc4ccccc4)ccc3C2=O)C(=O)N1 (stereo not shown) [Example 33, 3-(5-((benzylamino)methyl)-1-oxoisoindolin-2-yl)piperidine-2,6-dione]
70 | 0.657 | 20 | 0.384 | O=C1CCC(N2Cc3cc(CN[C@@H]4CCCC[C@@H]4CO)ccc3C2=O)C(=O)N1 (stereo partly drawn) [Example 34, 3-(5-((((1R,2S)-2-(hydroxymethyl)cyclohexyl)amino)methyl)-1-oxoisoindolin-2-yl)piperidine-2,6-dione]
88 | 0.111 | 85 | 0.028 | O=C1CCC(N2Cc3cc(CNC4CCN(c5ccccn5)CC4)ccc3C2=O)C(=O)N1 (stereo not shown) [Example 35, 3-(1-oxo-5-(((1-(pyridin-2-yl)piperidin-4-yl)amino)methyl)isoindolin-2-yl)piperidine-2,6-dione]
90 | 0.588 | 84 | 0.096 | O=C1CCC(N2Cc3cc(CNC4CCN(c5cccnc5)CC4)ccc3C2=O)C(=O)N1 (stereo not shown) [Example 36, 3-(1-oxo-5-(((1-(pyridin-3-yl)piperidin-4-yl)amino)methyl)isoindolin-2-yl)piperidine-2,6-dione]
76 | 1 | 56 | 0.667 | O=C1CCC(N2Cc3cc(CNC4CCN(c5ccncc5)CC4)ccc3C2=O)C(=O)N1 (stereo not shown) [Example 37, 3-(1-oxo-5-(((1-(pyridin-4-yl)piperidin-4-yl)amino)methyl)isoindolin-2-yl)piperidine-2,6-dione]
21 | 3.3 | – | > 10 | O=C1CCC(N2Cc3cc(CN[C@H]4CCCC[C@@H]4O)ccc3C2=O)C(=O)N1 (stereo partly drawn) [Example 38, 3-(5-((((1S,2S)-2-hydroxycyclohexyl)amino)methyl)-1-oxoisoindolin-2-yl)piperidine-2,6-dione]
37 | 4.1 | – | > 10 | O=C1CCC(N2Cc3cc(CN[C@H]4CCCC[C@H]4CO)ccc3C2=O)C(=O)N1 (stereo partly drawn) [Example 39, 3-(5-((((1S,2R)-2-(hydroxymethyl)cyclohexyl)amino)methyl)-1-oxoisoindolin-2-yl)piperidine-2,6-dione]
38 | 1.2 | – | > 10 | O=C1CCC(N2Cc3cc(CN[C@@H]4CCCC[C@H]4O)ccc3C2=O)C(=O)N1 (stereo partly drawn) [Example 40, 3-(5-((((1R,2R)-2-hydroxycyclohexyl)amino)methyl)-1-oxoisoindolin-2-yl)piperidine-2,6-dione]
42 | 0.373 | 31 | 0.051 | O=C1CCC(N2Cc3cc(CNC4CCC4)ccc3C2=O)C(=O)N1 (stereo not shown) [Example 41]
65 | 0.193 | 30 | 0.085 | O=C1CCC(N2Cc3cc(CNC4CC5CCC4C5)ccc3C2=O)C(=O)N1 (stereo not drawn) [Example 42, 3-(5-((exo-bicyclo[2.2.1]heptan-2-ylamino)methyl)-1-oxoisoindolin-2-yl)piperidine-2,6-dione]
78 | 0.064 | 71 | 0.032 | O=C1CCC(N2Cc3cc(CN[C@H]4CCCc5ccccc54)ccc3C2=O)C(=O)N1 (stereo partly drawn) [Example 43, 3-(1-oxo-5-((((S)-1,2,3,4-tetrahydronaphthalen-1-yl)amino)methyl)isoindolin-2-yl)piperidine-2,6-dione]
32 | 0.24 | 72 | 0.038 | O=C1CCC(N2Cc3cc(CNCCc4ccccc4Cl)ccc3C2=O)C(=O)N1 (stereo not shown) [Example 44, 3-(5-(((2-chlorophenethyl)amino)methyl)-1-oxoisoindolin-2-yl)piperidine-2,6-dione]
84 | 0.182 | 93 | 0.03 | O=C1CCC(N2Cc3cc(CN[C@@H]4C[C@H](F)CN(Cc5ccccc5)C4)ccc3C2=O)C(=O)N1 (stereo partly shown) [Example 45]
